# Test results: patent US20080242594A1, “Methods for Promoting Stem Cell Proliferation and Survival” (priority 2005, published 2008)
# Tests used:
# HSF6 hES cells = test: hES single cell plating efficiency, HSF-6; assay type: cell-based, human; details: singly dissociated cells on MEFs, treated daily for one week
# Source text: The human ES cell lines HSF-6 (University of California, San Francisco; NIH # UC06, Passage 38-120) and H1 and H9 (WiCell Research Institute, NIH # WA01 and […]) were maintained on mouse embryonic fibroblasts (MEF) according to the suppliers' protocols. Immunocytochemistry and FACS analysis for the expression of Oct4 and SSEA4 and SKY karyotyping established that the starting cells are undifferentiated and have a normal set of chromosomes. For single cell survival experiments, hES colonies were harvested after treatment with 1.5 mg/ml collagenase type IV (Invitrogen), separated from the MEF feeder cells by repeated washing by gravity, gently triturated to break up colonies into small aggregates, further dissociated into a single cell solution by trypsination (0.05% trypsin/0.04% EDTA) and transferred on MEF feeder cells at a density of 10000 cells/ml. Oct-4 positive colonies were counted six days after plating. […]
# The pro-survival effects of activation of Notch and inhibition of JAK was tested on HSF-6 (NIH code UC06, http://escell.ucsf.edu), H1 (NIH code WA01, www.wicell.org) and H9 (NIH code WA09, www.wicell.org) hES cells. Singly dissociated hES cells were plated on mouse embryo fibroblasts (MEFs), treated daily for one week and colony numbers counted. […]
# [1] = system: spontaneously hypertensive rats (SHR) with permanent middle cerebral artery occlusion; test: Focal ischemia (PMCAO) in rats with intraventricular infusion; assay type: in vivo, rat; details: stroked animals
# Description: For the induction of focal ischemia in rats, male spontaneously hypertensive rats (SHR) underwent permanent middle cerebral artery occlusion (PMCAO) (Leker et al., Stroke 33:1085-92, 2002). This is a highly reproducible model of focal irreversible cerebral ischemia that results in isolated fronto-parietal cortical injury. For motor disability evaluations, animals were analyzed with a standard motor disability protocol (Leker et al., Stroke 34:2000-6, 2003).
# (§1) Immuno-positive cells were analyzed by confocal microscopy counted using a non-biased system on slides obtained from homologous coronal slices containing the infarct of each animal at the position between +0.2 and −3.8 mm from the center of the bregma according to stereotaxic coordinates. Cells were enumerated in […] regions of interest, on both the ipsilateral and contralateral hemispheres (to cannula, or cannula and ischemic focus): subventricular zone (SVZ), corpus callosum and white matter and the peri-infarct cortex.
# There is growing evidence for an endogenous repair process following injury to the telencephalon. […]
# Treatment with Notch ligand with or without FGF2 increased the number of cells that were BrdU labeled in the days immediately following the injury and these cells survived for an additional 5 weeks (FIG. 6d). […] The behavior of animals in the 45 day groups were assessed at the indicated time points.
# adult rats = test: Intraventricular infusion in normal adult rats, BrdU labeled cells; assay type: in vivo, rat
# Description: In-vivo Experiments: All drugs were infused over one week using an Alzet osmotic pump (model 2001 delivering at a rate of 1 μl/hr for seven days). Briefly, an intracerebral cannula connected to the pump was inserted into the right lateral ventricle using the following stereotaxic coordinates: bregma AP +0, Lateral −1.5 mm dorso-ventral 3.3 mm. Animals received IP injection of the tracer BrdU (50 mg/kg) every 12 hours for 5 days beginning on day one post-operatively to label dividing cells.
# as §1
# The effect of intraventricular administration of Delta-4 was studied in adult rats. As in other tissues, the numbers of stem cells in the adult CNS are precisely controlled. […] In vivo manipulations were designed to ask if Notch ligands can act alone or substantially alter the effect of FGF2 on the numbers of proliferating cells in the SVZ of the normal brain. Animals (N=5-6 per treatment) were fitted with a mini-osmotic pump administering artificial cerebrospinal fluid (ACSF, vehicle), FGF2, Delta-4, or a combination FGF2+Delta-4 for one week into the ventricles of three-month old rats. Animals were also given twice-daily injections of bromodeoxyuridine (BrdU) from post-op days two to six to label cells generated during this time window. Two groups of animals were analyzed at day 7 and day 45 relative to the initiation of protein delivery. Delta-4 doses were chosen to provide a roughly equal concentration in the rat adult cerebrospinal fluid as in the cell culture medium of our in vitro experiments.
# Adult SVZ CNS SC = test: Multi-potentiality of adult CNS stem cells after mitogen withdrawal; assay type: cell-based, rat; details: FGF2 20 ng/ml 7 days, mitogen withdrawal 7 days
# Description: Very little protein or mRNA were detected outside the SVZ (FIG. 4g). Adult CNS stem cells can be cultured as a monolayer in vitro (FIG. 4h) and they show similar responses to extracellular signals that regulate stem cell differentiation upon withdrawal of the mitogen that sustains the undifferentiated state (Johe et al., Genes Dev 10:3129-40, 1996). To ask if Notch activation promotes survival in rat adult SVZ cultures, isolated cells were grown in the presence of FGF2 with and without Delta-4 for one week. […] When FGF2 was withdrawn for a week, cells at clonal density generated all three CNS lineages (FIG. 8C, Table 4).
# [2] = system: E13.5 cortical stem cells; test: Differentiation potential of embryonic CNS stem cells after Notch ligand treatment; assay type: cell-based, mouse; details: 5 days treatment in bFGF2 20 ng/ml, then mitogen withdrawal (WD) 3 days
# Description: To test whether Notch activation promoted differentiation or fate commitment, these cultures were treated with either Jagged-1 or Delta-4 for 5 days, […] The proportion of cells expressing genes characteristic of the stem or differentiated cells was determined (FIG. 8A).
# The multipotentiality of treated cells was tested more rigorously by plating them at clonal density (50 cells/cm^2). Following five days of Delta-4+FGF2 treatment and 5 days of differentiation, 65% of the clones contained GFAP+, TUJ1+, and CNPase+ cells (FIG. 8B).
substance,measurement,setting,value
FGF2: fibroblast growth factor FGF2 (233-FB) from R&D,plating efficiency relative to FGF2 controls,HSF6 hES cells,100%±15.35
same,size of the injury,[1],21.0%±3.5 % of hemisphere volume
same,number of proliferating cells / BrdU incorporation,"adult rats; day 7, contralateral site",no significant effect over vehicle
same,"number of BrdU labeled cells in SVZ, corpus callosum and cortex","adult rats; day 7, hemisphere ipsilateral to the cannula",increased the number of BrdU labeled cells
same,% Glia (GFAP),Adult SVZ CNS SC,51.8 ± 10.3%
same,% Neurons (TUJ1),Adult SVZ CNS SC,43.3 ± 10.7%
same,% Oligodendrocytes (CNPase),Adult SVZ CNS SC,9.4 ± 2.6%
same,% Glia (GFAP),[2],49.53 ± 4.79%
same,% Neurons (TUJ1),[2],42.37 ± 6.85%
same,% Oligodendrocytes (CNPase),[2],9.12 ± 2.82%
